Laboratory results published in ChEMBL document CHEMBL1135452, “Side-chain homologation of nodulisporic acid: synthesis of potent new dienyl derivatives” (Bioorg Med Chem Lett, 2002).

The compounds below were run on Pulicinae (assay: In vitro systemic flea efficacy using membrane feeding assay.).
Type: functional
Compound C=C(C)[C@H]1C(=O)c2c3c(cc4c5c(n1c24)[C@@]1(C)C(CC[C@H]2[C@](C)(/C=C/C=C(\CC)C(=O)NC(C)(C)C)[C@@H](O)CC[C@@]21C)C5)C1=CC(C)(C)OC(C)(C)C1[C@@H]3O (some centres not stated) has an Activity of 1 p.p.m. C=C(C)[C@H]1C(=O)c2c3c(cc4c5c(n1c24)[C@@]1(C)C(CC[C@H]2[C@](C)(/C=C/C=C/C(=O)OCc4ccccc4)[C@@H](O)CC[C@@]21C)C5)C1=CC(C)(C)OC(C)(C)C1[C@@H]3O (some centres not stated) gave an Activity of 10 p.p.m. In the case of C=CCOC(=O)/C=C/C=C/[C@]1(C)[C@@H](O)CC[C@@]2(C)[C@H]1CCC1Cc3c(n4c5c(c6c(cc35)C3=CC(C)(C)OC(C)(C)C3[C@@H]6O)C(=O)[C@@H]4C(=C)C)[C@@]12C (some centres not stated), the Activity is reported as 1 p.p.m. C=C(C)[C@H]1C(=O)c2c3c(cc4c5c(n1c24)[C@@]1(C)C(CC[C@H]2[C@](C)(/C=C/C=C(\CC)C(=O)O)[C@@H](O)CC[C@@]21C)C5)C1=CC(C)(C)OC(C)(C)C1[C@@H]3O (some centres not stated) was tested, and the Activity was 10 p.p.m. Compound C=C(C)[C@H]1C(=O)c2c3c(cc4c5c(n1c24)[C@@]1(C)C(CC[C@H]2[C@](C)(/C=C/C=C(\OC)C(N)=O)[C@@H](O)CC[C@@]21C)C5)C1=CC(C)(C)OC(C)(C)C1[C@@H]3O (some centres not stated) has an Activity of 10 p.p.m. Work on C=C/C=C/[C@]1(C)[C@@H](O)CC[C@@]2(C)[C@H]1CCC1Cc3c(n4c5c(c6c(cc35)C3=CC(C)(C)OC(C)(C)C3[C@@H]6O)C(=O)[C@@H]4C(=C)C)[C@@]12C (some centres not stated) yielded an Activity of 10 p.p.m. In the case of C=C(C)[C@H]1C(=O)c2c3c(cc4c5c(n1c24)[C@@]1(C)C(CC[C@H]2[C@](C)(/C=C/C=C/C(=O)N(C)CC)[C@@H](O)CC[C@@]21C)C5)C1=CC(C)(C)OC(C)(C)C1[C@@H]3O (some centres not stated), the Activity is reported as 1 p.p.m. C=C(C)[C@H]1C(=O)c2c3c(cc4c5c(n1c24)[C@@]1(C)C(CC[C@H]2[C@](C)(/C=C/C=C(\C)C(=O)O)[C@@H](O)CC[C@@]21C)C5)C1=CC(C)(C)OC(C)(C)C1[C@@H]3O (some centres not stated) gave an Activity of 1 p.p.m. Work on C=C(C)[C@H]1C(=O)c2c3c(cc4c5c(n1c24)[C@@]1(C)C(CC[C@H]2[C@](C)(/C=C/C(C)=C/C(=O)NC(C)C)[C@@H](O)CC[C@@]21C)C5)C1=CC(C)(C)OC(C)(C)C1[C@@H]3O (some centres not stated) yielded an Activity of 1 p.p.m. C=C(C)[C@H]1C(=O)c2c3c(cc4c5c(n1c24)[C@@]1(C)C(CC[C@H]2[C@](C)(/C=C/C=C(\OC)C(=O)NCC)[C@@H](O)CC[C@@]21C)C5)C1=CC(C)(C)OC(C)(C)C1[C@@H]3O (some centres not stated) was tested, and the Activity was 10 p.p.m. C=C(C)[C@H]1C(=O)c2c3c(cc4c5c(n1c24)[C@@]1(C)C(CC[C@H]2[C@](C)(/C=C/C=C/C(=O)NC(C)(C)C)[C@@H](O)CC[C@@]21C)C5)C1=CC(C)(C)OC(C)(C)C1[C@@H]3O (some centres not stated) was tested, and the Activity was 1 p.p.m. For C=C(C)[C@H]1C(=O)c2c3c(cc4c5c(n1c24)[C@@]1(C)C(CC[C@H]2[C@](C)(/C=C/C=C(\C#N)C(=O)N4CCCC4)[C@@H](O)CC[C@@]21C)C5)C1=CC(C)(C)OC(C)(C)C1[C@@H]3O (some centres not stated), the Activity was 10 p.p.m. C=CC/C(=C\C=C\[C@]1(C)[C@@H](O)CC[C@@]2(C)[C@H]1CCC1Cc3c(n4c5c(c6c(cc35)C3=CC(C)(C)OC(C)(C)C3[C@@H]6O)C(=O)[C@@H]4C(=C)C)[C@@]12C)C(=O)NCC (some centres not stated) was tested, and the Activity was 1 p.p.m. C=C(C)[C@H]1C(=O)c2c3c(cc4c5c(n1c24)[C@@]1(C)C(CC[C@H]2[C@](C)(/C=C/C=C(\CCC)C(=O)NCC)[C@@H](O)CC[C@@]21C)C5)C1=CC(C)(C)OC(C)(C)C1[C@@H]3O (stereo in doubt; 45) was tested, and the Activity was 1 p.p.m. C=C(C)[C@H]1C(=O)c2c3c(cc4c5c(n1c24)[C@@]1(C)C(CC[C@H]2[C@](C)(/C=C/C=C(\OC)C(=O)NC(C)(C)C)[C@@H](O)CC[C@@]21C)C5)C1=CC(C)(C)OC(C)(C)C1C3 (some centres not stated) was tested, and the Activity was greater than 10 p.p.m. Compound C=C(C)[C@H]1C(=O)c2c3c(cc4c5c(n1c24)[C@@]1(C)C(CC[C@H]2[C@](C)(/C=C/C=C/C(N)=O)[C@@H](O)CC[C@@]21C)C5)C1=CC(C)(C)OC(C)(C)C1[C@@H]3O (some centres not stated) has an Activity of 1 p.p.m. Work on C=C(C)[C@H]1C(=O)c2c3c(cc4c5c(n1c24)[C@@]1(C)C(CC[C@H]2[C@](C)(/C=C/C=C(\CC)C(=O)N(C)C)[C@@H](O)CC[C@@]21C)C5)C1=CC(C)(C)OC(C)(C)C1[C@@H]3O (some centres not stated) yielded an Activity of 1 p.p.m.
